# Reference: patent US11135214B2, “Methods for enhancing the bio availability and exposure of a voltage-gated potassium channel opener” (priority 2018, dated 2021)
# Where “and” joins values, the source holds several entries; their conditions need not be identical. Identical values can stand only once.
# Columns and labels:
# [1] = Food effect study, oral capsule, plasma PK in non-human primate; assay type: in vivo, Cynomolgus monkeys; conditions: plasma
# Experimental: The following study was conducted to determine the effect of food when Compound A is orally administered to a non-human primate.
# Three (n=3) Cynomolgus monkeys of Vietnamese origin were used in this study. At the time of initial dose administration, the monkeys weighed 4.7 to 5.1 kg and were about 4.5 years of age.
# A certified primate diet (Teklad® Certified Diet 2050C) was fed during the study. For Group 1, the three monkeys were fasted overnight with food returned 4 hours post-dose. For Group 2, the same three monkeys were fasted overnight and offered food about 1 hour prior to dosing and food was returned at 4 hours post-dose. The following Table 1 gives the food consumption for Group 2:
# The oral dosage units consisted of about 3 mg/kg of Compound A in a capsule. The capsules were filled the morning of the dose administration and kept at room temperature until dosing. The remaining capsules were placed into the −20° C. storage.
# The capsules were placed as far back in the animal's mouth as possible using a pill gun or a modified gavage tube. Approximately 10 mL of water was administered via syringe to ensure complete delivery of the intended dose. Each animal received 1 capsule per dose. The same animals were dosed twice with a 96 hour washout period between doses.
# Group 1: All animals were weighed the afternoon prior to dose administration. Animal #2 struggled with dosing. After several attempts, the animal was given a short break and finally dosed successfully.
# Group 2: All animals were weighed the morning of dose administration. All animals were dosed without incident.
# Whole blood (˜2.0 mL) was collected using syringe and needle from cephalic or saphenous veins and transferred into vacutainer tubes containing K2EDTA and kept on wet ice until processed for plasma. Blood samples were collected at time of dosing (0.0 hours, time zero) and at 0.5, 1, 2, 4, 8, 12, 24 and 48 hours post-dose.
# The whole blood samples were placed in a K2EDTA tube and centrifuged at 3200 RPM for 10 minutes at approximately 5° C. Plasma samples were divided into 2 aliquots and each aliquot directly transferred to appropriately labeled, individual tubes containing study number, collection time point, animal ID number, and sample description. One aliquot was placed into storage at −20±5° C. until shipment for analysis. The other aliquot was retained at −20±5° C. Red blood cells were disposed.
# All samples were processed per standard protocol for bioanalytical analysis.
# [2] = Transcranial magnetic stimulation pilot study (RMT/AMT, TEPs, rEEG); conditions: male, human, in vivo
# Experimental: (§1) In a pilot study TMS was used to non-invasively determine whether Compound A (10, 15 and 20 mg) impacts cortical excitability. The TMS pilot study was designed to inform sample size calculation for a larger randomized, double-blind and placebo-controlled TMS cross-over study (N=20) with Compound A.
# (§2) Eight healthy, right-handed male subjects (aged 21-35 years, 62.4-95.4 kg) from a First-in-Human Phase 1 study were enrolled in this open-label TMS pilot study. RMT, TEPs and EEGs were recorded prior to Compound A, 2 and 4 h post dose. Spectral analysis was performed on resting EEGs. Single-subject level analyses were performed via multiple independent sample t-tests to determine effects of Compound A on TEP amplitudes. Multiple comparisons were accounted for using clusterbased permutation analysis.
# cortical excitability = assay: as above
# Experimental: as §1, §2
# [3] = tested on: corticospinal excitability; assay: TMS crossover study, TMS-EMG active motor threshold (AMT); assay type: in vivo, human; conditions: for Active Motor Threshold, post-dose change from baseline: individual subjects; for Active Motor Threshold, post-dose change from baseline / Active Motor Threshold, post-dose change from baseline (Mean): single 20 mg dose; for Active Motor Threshold, post-dose change from baseline (Mean): mean of subjects
# Experimental: RMT and AMT values are reported as percentages of maximum stimulator output (% MSO). Drug-induced modulation of TMS-EMG parameters were evaluated over the 3 timepoints (2, 4, and 6 h) and for the timepoint with the highest drug exposure. AMT was recorded while subjects squeezed a manometer at 20% of each individual's maximum contraction force. […] AMT could not be registered for Subjects 912 and 940 at 2 hours after Compound A and placebo intake, respectively.
compound,measurement,setting,value
"Cc1cc(N2CCc3cc(F)ccc3C2)cc(C)c1NC(=O)CC(C)(C)C [Compound A, N-[4-(6-fluoro-3,4-dihydro-1H-isoquinolin-2-yl)-2,6-dimethylphenyl]-3,3-dimethylbutanamide]",AUC(0-t),"[1]; cynomolgus monkey, po, 3 mg/kg, Group 2 (fed), 3 mg/kg capsule, Mean",1640 ng·h/mL
same,AUC(0-inf),"[1]; cynomolgus monkey, po, 3 mg/kg, Group 2 (fed), 3 mg/kg capsule, Mean, read-out: AUCinfobs",1180 ng·h/mL
same,concentration at 0 h,"[1]; cynomolgus monkey, po, 3 mg/kg, fasted, 3 mg/kg oral, 0 h, individual animals, read-out: Concentration",0 ng/mL
same,concentration at 0.5 h,"[1]; cynomolgus monkey, po, 3 mg/kg, fasted, 3 mg/kg oral, 0.5 h, individual animals, read-out: Concentration",0 ng/mL
same,concentration at 4 h,"[1]; cynomolgus monkey, po, 3 mg/kg, fasted, 3 mg/kg oral, 4 h, individual animals, read-out: Concentration",12.6 ng/mL
same,concentration at 8 h,"[1]; cynomolgus monkey, po, 3 mg/kg, fasted, 3 mg/kg oral, 8 h, individual animals, read-out: Concentration",38.4 ng/mL
same,concentration at 12 h,"[1]; cynomolgus monkey, po, 3 mg/kg, fasted, 3 mg/kg oral, 12 h, individual animals, read-out: Concentration",38.3 ng/mL
same,Concentration,"[1]; fasted, 3 mg/kg oral, 0 h, individual animals",0 ng/mL
same,Concentration,"[1]; fasted, 3 mg/kg oral, 0.5 h, individual animals",0 ng/mL
same,Concentration,"[1]; fasted, 3 mg/kg oral, 1 h, individual animals, 3 mg/kg",15.6 ng/mL and 5.07 ng/mL and 0 ng/mL
same,Concentration,"[1]; fasted, 3 mg/kg oral, 2 h, individual animals, 3 mg/kg",6.00 ng/mL and 23.5 ng/mL and 16.4 ng/mL
same,Concentration,"[1]; fasted, 3 mg/kg oral, 4 h, individual animals, 3 mg/kg",19.2 ng/mL and 18.1 ng/mL
same,Concentration,"[1]; fasted, 3 mg/kg oral, 8 h, individual animals, 3 mg/kg",63.1 ng/mL and 48.1 ng/mL
same,Concentration,"[1]; fasted, 3 mg/kg oral, 12 h, individual animals, 3 mg/kg",75.1 ng/mL and 53.7 ng/mL
same,Concentration,"[1]; fasted, 3 mg/kg oral, 24 h, individual animals, 3 mg/kg",22.5 ng/mL and 53.2 ng/mL and 51.8 ng/mL
same,Concentration,"[1]; fasted, 3 mg/kg oral, 48 h, individual animals, 3 mg/kg",3.13 ng/mL and 12.5 ng/mL and 11.2 ng/mL
same,Concentration,"[1]; fed, 3 mg/kg capsule, 0 h, individual animals",0 ng/mL
same,Concentration,"[1]; fed, 3 mg/kg capsule, 0.5 h, individual animals, 3 mg/kg",1.05 ng/mL and 0 ng/mL (2×)
same,Concentration,"[1]; fed, 3 mg/kg capsule, 1 h, individual animals, 3 mg/kg",1.21 ng/mL and 1.48 ng/mL
same,Concentration,"[1]; fed, 3 mg/kg capsule, 2 h, individual animals, 3 mg/kg",11.8 ng/mL and 0 ng/mL and 11.4 ng/mL
same,Concentration,"[1]; fed, 3 mg/kg capsule, 4 h, individual animals, 3 mg/kg",34.8 ng/mL and 19.9 ng/mL and 78.2 ng/mL
same,Concentration,"[1]; fed, 3 mg/kg capsule, 8 h, individual animals, 3 mg/kg",52.2 ng/mL and 63.7 ng/mL
same,Concentration,"[1]; fed, 3 mg/kg capsule, 12 h, individual animals, 3 mg/kg",67.5 ng/mL and 42.2 ng/mL
same,Concentration,"[1]; fed, 3 mg/kg capsule, 24 h, individual animals, 3 mg/kg",24.2 ng/mL and 61.9 ng/mL and 48.8 ng/mL
same,Concentration,"[1]; fed, 3 mg/kg capsule, 48 h, individual animals, 3 mg/kg",4.26 ng/mL and 16.9 ng/mL and 13.5 ng/mL
same,concentration at 4 h,[2]; 10 mg,23.1 ng/mL
same,concentration at 4 h,[2]; 15 mg,36.3 ng/mL
same,concentration at 4 h,[2]; 20 mg,50 ± 10 ng/mL
same,TEP modulation,cortical excitability; 10 mg (N=2) and 15 mg (N=3),did not show significant and robust TEP modulation
same,AMT,"cortical excitability; 10 mg, N=2",did not change AMT
same,SICI assessed with TMS/EMG,"cortical excitability; 10, 15, 20 mg",but not SICI
same,motor thresholds assessed with TMS/EMG,"cortical excitability; 10, 15, 20 mg, 2 and 4 hours post-drug",increased
same,RMT increase from baseline,cortical excitability; 4 h post 20 mg,4.3±0.6%
same,theta power in rEEG,cortical excitability; 4 h post 20 mg,increased
same,"suppression of TEP amplitude, peak at 180 ms (P180)","cortical excitability; 4 h post 20 mg, p<0.01, N=3",1.92±0.03 μV
same,AMT,[3]; 20 mg single dose,increased
same,change from baseline in AMT vs placebo,"[3]; 20 mg, 6 h post-dose, p<0.01",significantly different from placebo
same,"Active Motor Threshold, post-dose change from baseline",[3]; 2 h post-dose,2 % MSO (3×) and 4 % MSO and 0 % MSO (9×) and 3 % MSO and 1 % MSO (5×)
same,"Active Motor Threshold, post-dose change from baseline",[3]; 4 h post-dose,2 % MSO (4×) and 4 % MSO and 0 % MSO (9×) and 3 % MSO (4×) and 1 % MSO (2×)
same,"Active Motor Threshold, post-dose change from baseline",[3]; 6 h post-dose,0 % MSO (4×) and 6 % MSO and 1 % MSO (3×) and 2 % MSO (2×) and 3 % MSO (5×) and 4 % MSO
same,"Active Motor Threshold, post-dose change from baseline (Mean)",[3]; 2 h post-dose,0.9 % MSO
same,"Active Motor Threshold, post-dose change from baseline (Mean)",[3]; 4 h post-dose,1.3 % MSO
same,"Active Motor Threshold, post-dose change from baseline (Mean)",[3]; 6 h post-dose,2.0 % MSO
